Converted amounts (≈) assume the structure as drawn. The source made the active and inactive calls. No cut-off for these calls is given here.
Tests used:
Klebsiella pneumoniae [1] = experiment: Antibacterial activity against Klebsiella pneumoniae ATCC BAA-1705 assessed as bacterial growth inhibition at 50 umol/L after 8 hrs by turbidimetric plate reader method; type: functional, organism-based
Klebsiella pneumoniae [2] = experiment: Antibacterial activity against Klebsiella pneumoniae ATCC BAA-1705 assessed as bacterial growth inhibition after 8 hrs by turbidimetric plate reader method; type: functional; settings: for MBC: ATCC BAA-1705, 8 h
Acinetobacter baumannii [3] = experiment: Antibacterial activity against Acinetobacter baumannii ATCC BAA-1710D assessed as bacterial growth inhibition after 8 hrs by turbidimetric plate reader method; type: functional
Klebsiella pneumoniae [4] = experiment: Downregulation of ldhD gene expression in Klebsiella pneumoniae ATCC BAA-1705 at 50 umol/L after 8 hrs by real time RT-PCR; type: functional, organism-based
Klebsiella pneumoniae [5] = experiment: Upregulation of GES gene expression in Klebsiella pneumoniae ATCC BAA-1705 at 50 umol/L after 8 hrs by real time RT-PCR; type: functional, organism-based
Klebsiella pneumoniae [6] = experiment: Downregulation of ldhD gene expression in Klebsiella pneumoniae ATCC BAA-1705 at 50 umol/L after 8 hrs by semi-quantitative RT-PCR; type: functional, organism-based
Klebsiella pneumoniae [7] = experiment: Upregulation of PER-2 gene expression in Klebsiella pneumoniae ATCC BAA-1705 at 50 umol/L after 8 hrs by real time RT-PCR; type: functional, organism-based
Klebsiella pneumoniae [8] = experiment: Upregulation of IMP gene expression in Klebsiella pneumoniae ATCC BAA-1705 at 50 umol/L after 8 hrs by semi-quantitative RT-PCR; type: functional, organism-based
Klebsiella pneumoniae [9] = experiment: Upregulation of VEB gene expression in Klebsiella pneumoniae ATCC BAA-1705 at 50 umol/L after 8 hrs by real time RT-PCR; type: functional, organism-based
Bacillus subtilis [10] = experiment: Antibacterial activity against Bacillus subtilis ATCC 6051 assessed as bacterial growth inhibition after 8 hrs by turbidimetric plate reader method; type: functional
Klebsiella pneumoniae [11] = experiment: Upregulation of IMP gene expression in Klebsiella pneumoniae ATCC BAA-1705 at 50 umol/L after 8 hrs by real time RT-PCR; type: functional, organism-based
Klebsiella pneumoniae [12] = experiment: Upregulation of VEB gene expression in Klebsiella pneumoniae ATCC BAA-1705 at 50 umol/L after 8 hrs by semi-quantitative RT-PCR; type: functional, organism-based
Escherichia coli [13] = experiment: Antibacterial activity against Escherichia coli ATCC 25922 assessed as bacterial growth inhibition after 8 hrs by turbidimetric plate reader method; type: functional
Klebsiella pneumoniae [14] = experiment: Upregulation of PER-2 gene expression in Klebsiella pneumoniae ATCC BAA-1705 at 50 umol/L after 8 hrs by semi-quantitative RT-PCR; type: functional, organism-based
Klebsiella pneumoniae [15] = experiment: Upregulation of GES gene expression in Klebsiella pneumoniae ATCC BAA-1705 at 50 umol/L after 8 hrs by semi-quantitative RT-PCR; type: functional, organism-based
Bacillus subtilis [16] = experiment: Antibacterial activity against Bacillus subtilis ATCC 6051 assessed as bacterial growth inhibition at 50 umol/L after 8 hrs by turbidimetric plate reader method; type: functional, organism-based
Escherichia coli [17] = experiment: Antibacterial activity against Escherichia coli ATCC 25922 assessed as bacterial growth inhibition at 50 umol/L after 8 hrs by turbidimetric plate reader method; type: functional, organism-based
Acinetobacter baumannii [18] = experiment: Antibacterial activity against Acinetobacter baumannii ATCC BAA-1710D assessed as bacterial growth inhibition at 50 umol/L after 8 hrs by turbidimetric plate reader method; type: functional, organism-based

| Compound | growth inhibition (GI) (Klebsiella pneumoniae [1]) | growth inhibition (GI) (Klebsiella pneumoniae [2]) | MBC (Klebsiella pneumoniae [2]) | growth inhibition (GI) (Acinetobacter baumannii [3]) | Activity (Klebsiella pneumoniae [4]) | Activity (Klebsiella pneumoniae [5]) | Activity (Klebsiella pneumoniae [6]) | Activity (Klebsiella pneumoniae [7]) | Activity (Klebsiella pneumoniae [8]) | Activity (Klebsiella pneumoniae [9]) | growth inhibition (GI) (Bacillus subtilis [10]) | Activity (Klebsiella pneumoniae [11]) | Activity (Klebsiella pneumoniae [12]) | growth inhibition (GI) (Escherichia coli [13]) | Activity (Klebsiella pneumoniae [14]) | Activity (Klebsiella pneumoniae [15]) | growth inhibition (GI) (Bacillus subtilis [16]) | growth inhibition (GI) (Escherichia coli [17]) | growth inhibition (GI) (Acinetobacter baumannii [18]) | MBC (Acinetobacter baumannii [3]) |
| --- | --- | --- | --- | --- | --- | --- | --- | --- | --- | --- | --- | --- | --- | --- | --- | --- | --- | --- | --- | --- |
| CCCOC(=O)[C@]12CCC(C)(C)C[C@H]1C1=CC[C@@H]3[C@@]4(C)[C@H]5O[C@H]5[C@H](O)C(C)(C)[C@@H]4CC[C@@]3(C)[C@]1(C)CC2 | Active | Dose-dependent effect | 1.5 µM (≈ 0.769 µg/mL) | Dose-dependent effect | Active | inactive | Active | Active | Active | Active | Dose-dependent effect | Active | Active | Dose-dependent effect | Active | inactive |  |  |  |  |
| CCOC(=O)[C@]12CCC(C)(C)C[C@H]1C1=CC[C@@H]3[C@@]4(C)[C@H]5O[C@H]5[C@H](O)C(C)(C)[C@@H]4CC[C@@]3(C)[C@]1(C)CC2 | Active | Dose-dependent effect | 1.8 µM (≈ 0.898 µg/mL) | Dose-dependent effect | Active | inactive | Active | Active | Active | Active | Dose-dependent effect | Active | Active | Dose-dependent effect | Active | inactive |  |  |  |  |
| CO[C@H]1[C@@H]2O[C@@H]2[C@]2(C)[C@H]3CC=C4[C@@H]5CC(C)(C)CC[C@]5(C(=O)O)CC[C@@]4(C)[C@]3(C)CC[C@H]2C1(C)C | inactive |  |  |  |  |  |  |  |  |  |  |  |  |  |  |  | inactive | inactive | inactive |  |
| NC[C@H]1O[C@H](O[C@H]2[C@H](O)[C@@H](O[C@H]3O[C@H](CO)[C@@H](O)[C@H](N)[C@H]3O)[C@H](N)C[C@@H]2N)[C@H](O)[C@@H](O)[C@@H]1O [KANAMYCIN] |  |  |  |  |  |  |  |  |  |  |  |  |  |  |  |  |  |  |  | 1.6 µM (≈ 0.775 µg/mL) |
